We go through 6 molecules from patent US8227502B2, “Amides acting on the adenosine receptors” (Anamar AB, priority 2006, dated 2012).

The first experiment relates to antigen induced arthritis. The experiment is described as follows: Antigen induced arthritis (AIA), knee joint swelling. Type of experiment: in vivo. To be noted: rat, per oral administration, FIG. 1. The text has this:
Antigen Induced Arthritis (AIA) in the rat is a well reproducible monoarthritis model. An intraarticular injection of the antigen methylated bovine serum albumin (mBSA) in the knee joint in sensitised animals induces an inflammatory response. The formation of pannus tissue, which invades the synovium, spreads over the articular cartilage and grows into the bone, leading to tissue erosion and remodeling.
AIA responds well to compounds used for standard clinical treatment of human arthritis. Therefore this model is appropriate for the evaluation of the effects of new compounds on joint inflammation and cartilage/bone degradation. The test compounds can be administered locally or systemically. The features of the arthritis can be followed and evaluated by measuring knee joint swelling, by functional scoring and histological analysis. Since it is a monoarthritis model, the level of inflammatory serum markers may be difficult to detect. The AIA model also serves as a source for the production of synoviocytes for in vitro culturing, in order to gain further insight in the synovial matrix composition and for drug screening purposes.
In Antigen induced arthritis—for the effect on knee diameter of Compound 1:16 after per oral administration—see FIG. 1.
As to `NCCC(=O)N(CCc1c[nH]c2ccccc12)C(C(=O)Nc1ccccc1)c1ccc(Br)cc1Br` (centres unmarked) [Compound 1:16, 3-Amino-N-[(2,4-dibromo-phenyl)-phenylcarbamoyl-methyl]-N-[2-(1H-indol-3-yl)-ethyl]-propionamide], the “swelling of the knee (knee diameter)” value was “reduced the swelling of the knee”.

For the next experiment, the target named is T1, adenosine A2A receptor (Homo sapiens, UniProt P29274).
T1 construct: from tissue
T1 sequence (P29274 whole entry): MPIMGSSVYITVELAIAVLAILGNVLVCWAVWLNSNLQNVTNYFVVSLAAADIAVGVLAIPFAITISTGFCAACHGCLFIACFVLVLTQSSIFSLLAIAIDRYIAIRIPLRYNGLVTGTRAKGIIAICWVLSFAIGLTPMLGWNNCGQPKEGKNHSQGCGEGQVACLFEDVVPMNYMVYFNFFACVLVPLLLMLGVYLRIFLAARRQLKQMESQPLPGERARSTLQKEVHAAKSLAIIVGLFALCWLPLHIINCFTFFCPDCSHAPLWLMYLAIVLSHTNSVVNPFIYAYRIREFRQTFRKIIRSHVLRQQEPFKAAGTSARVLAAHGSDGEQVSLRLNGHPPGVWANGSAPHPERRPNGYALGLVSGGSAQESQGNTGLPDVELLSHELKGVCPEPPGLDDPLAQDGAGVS
The experiment is described as follows: Affinity for adenosine A2A receptor ([3H]CGS21680 binding, per Varani et al.).
Conditions: not given
The text has this: The affinity and functionality towards the adenosine A2A receptor was essentially performed as described by Varani et al. (Varani, Pharmacological and biochemical characterization of purified A2A adenosine receptors in human platelet membranes by [^3H]CGS21680 binding, Br. J. Pharmacol. 117:1693-1701, 1996), Table 1.
On to `NCCC(=O)N(CCc1c[nH]c2ccccc12)C(C(=O)NC1CCCCC1)c1ccccc1Br` (centres unmarked) [1:02, 3-Amino-N-[(2-bromo-phenyl)-cyclohexylcarbamoyl-methyl]-N-[2-(1H-indol-3-yl)-ethyl]-propionamide], for which the Ki (commonly a dissociation constant, usually derived from enzyme kinetics or from competition with a known ligand) is 1 µM. That is a single-digit micromolar value.
`NCCC(=O)N(CCc1c[nH]c2ccccc12)C(C(=O)NC1CCCCC1)c1ccc(Br)cc1Br` (centres unmarked) [1:04, 3-Amino-N-[cyclohexylcarbamoyl-(2,4-dibromo-phenyl)-methyl]-N-[2-(1H-indol-3-yl)-ethyl]-propionamide]: the IC50 (commonly the concentration needed to halve the response being measured) turned out to be 2.84 µM and the Ki came out at 1.6 µM.
As for `NCCC(=O)N(CCc1c[nH]c2ccccc12)C(C(=O)NCc1ccccc1)c1ccc(Br)cc1Br` (centres unmarked) [1:09, 3-Amino-N-[benzylcarbamoyl-(2,4-dibromo-phenyl)-methyl]-N-[2-(1H-indol-3-yl)-ethyl]-propionamide], the IC50 amounted to 5.11 µM and the Ki worked out at 2.87 µM.
Regarding `NCCC(=O)N(CCc1c[nH]c2ccccc12)C(C(=O)Nc1ccccc1)c1ccccc1Br` (centres unmarked) [1:13, 3-Amino-N-[(2-bromo-phenyl)-phenylcarbamoyl-methyl]-N-[2-(1H-indol-3-yl)-ethyl]-propionamide], affinity was put at a Ki of 0.06 µM.
With `NCCC(=O)N(CCc1c[nH]c2ccccc12)C(C(=O)Nc1ccccc1)c1ccc(Br)cc1` (centres unmarked) [1:15, 3-Amino-N-[(4-bromo-phenyl)-phenylcarbamoyl-methyl]-N-[2-(1H-indol-3-yl)-ethyl]-propionamide], the IC50 was determined as 0.243 µM and the Ki stood at 0.136 µM.
The molecule `NCCC(=O)N(CCc1c[nH]c2ccccc12)C(C(=O)Nc1ccccc1)c1ccc(Br)cc1Br` (centres unmarked) [Compound 1:16, 3-Amino-N-[(2,4-dibromo-phenyl)-phenylcarbamoyl-methyl]-N-[2-(1H-indol-3-yl)-ethyl]-propionamide] showed an IC50 of 0.0311 µM and a Ki of 0.0175 µM.
